System: Aspergillus niger DSMZ 737
Test: Minimum Inhibition Concentration (MIC) test in YG broth cell culture plates
Type: cell-based
Conditions: substance alone, 3 days at 30° C., no visible growth of mycelium
Experimental: Further tests have been conducted to establish synergistic activity of the antimycotic cocktails of the present invention. These tests are based on determination of the Minimum Inhibition Concentration (MIC).
For the tests, cell culture plates with YG broth as a base were used. Test samples were inoculated with a conidial suspension of Aspergillus niger DSMZ 737 and incubated for 3 days at 30° C. The targeted spore count was at approximately 10^5 spores/ml. As Minimal Inhibition Concentration (MIC) the concentration of active ingredient with no visible growth of mycelium in the cavity was defined. In addition, results were confirmed microscopically and in a culture on YGC plates.
To dissolve the different mixtures, one of the following media was used as appropriate: distilled water; distilled water+0.5% Tween 80; distilled water+0.4% Lecithine.

cinnamon aldehyde
Minimum Inhibition Concentration (MIC): 200 ppm

CCCCCCCC(=O)O [caprylic acid]
MIC (Aspergillus niger, DSMZ737, 72 h): 2000 µg/mL

O=C(O)CC(O)C(=O)O (stereo not drawn) [malic acid]
Minimum Inhibition Concentration (MIC): no MIC
